The source of these data is patent US11332438B2, “Creatine prodrugs, compositions and methods of use thereof” (Ultragenyx Pharmaceutical Inc., priority 2017, dated 2022).

A short description of data set [1]: Plasma stability, human plasma. In kind it is in vitro ADME. As to conditions: Table 2A, 37 °C, read-out: Plasma Stability Human t1/2. As to the method: (§1) The stabilities of creatine prodrugs can be evaluated in one or more in vitro systems using a variety of preparations following methods known in the art. Experimental conditions useful for the in vitro studies are described in Table 1. Prodrug is added to each preparation in triplicate. […]
(§2) Protocol for plasma stability for early screen macrocycles (Method A):
(§3) Frozen plasma was thawed by placing at 37° C. quickly and centrifuged at 3,000 rpm for 8 minutes to remove clots. Then the supernatant was pipetted and pooled as the plasma to be used in the experiment. The plasma was placed on ice until used. The test compounds and reference compounds spiking solution was prepared as a 2.5 mM test compounds spiking solution A: Add 20 μL of 10 mM test compounds stock solution to 60 μL DMSO. 0.1 mM Spiking solution B was prepared: Add 40 μL of spiking solution A to 960 μL of […] Sodium phosphate buffer with 0.5% BSA. […] For 0-min, 400 μL of ACN containing IS was added to the wells of 0-min plate and then 90 μL of plasma was added. […] 50 μL of the supernatant was transferred from each well into a 96-well sample plate containing 120 μL of ultra pure water (Millipore, ZMQS50F01) and analyzed by LC/MS.
(§4) Protocol for plasma stability (Method B):
(§5) The frozen plasma was thawed in a 37° C. water bath and then, if needed, adjusted to pH=7.4 then preheated in a 37° C. incubator. The test article was dissolved in 10% DMSO/water and spiked into plasma pre-plated into 96 well plates at a final concentration of 1 μM. Discrete incubations were performed at 37° C. and included 5 time points: t=0, 2, 5, 15, and 30 min. Samples were then crashed with 4× volume, ice cold 20% water/80% acetonitrile and spun at 4000 g for 10 mins. The supernatant was dried down and reconstituted with water and analyzed by LC-MS/MS. The half life in minute was calculated.

The nature of data set [2]: Plasma stability, mouse plasma. As to conditions: Table 2A, 37 °C, read-out: Plasma Stability Mouse t1/2. In kind it is in vitro ADME. As to the method: as §1, §2, §3, §4, §5
A short description of data set [3]: Liver microsome stability, human. The conditions noted are these: liver microsomes, read-out: Microsome Stability Human t1/2. Format: in vitro ADME. As to the method:
as §1
(§6) Protocol for Microsomal Stability:
(§7) For reference compound, a 500 μM spiking solution was prepared: add 10 μL of 10 mM DMSO stock solution into 190 μL ACN. […] For test compound, a 5 mM spiking solution was prepared: add 10 μL of 10 mM DMSO stock solution into 10 μL ACN. […] NADPH stock solution (6 mM) was prepared by dissolving NADPH into buffer 0.1 M Potassium Phosphate buffer, 1.0 mM EDTA, pH 7.4. […] For 0-min, 135 μL of ACN containing IS was added to the wells of 0-min plate and then 15 μL of NADPH stock solution (6 mM) was added. 15 μL of NADPH stock solution (6 mM) was added to the samples designated as 0-, 5-, 10-, 20-, 30-min, 60-min; 15 μL of buffer 0.1 M Potassium Phosphate buffer, 1.0 mM EDTA, pH 7.4, was added to the samples designated as 60-min without NADPH. At 5-min, 10-min, 20-min, and 30-min, 60-min 135 μL of ACN containing IS was added to the wells of corresponding plates, respectively, to stop the reaction. […] 50 μL of the supernatant from each well was transferred into a 96-well sample plate containing 50 μL of ultra pure water (Millipore, ZMQS50FOI) and analyzed by LC/MS.
Background: Liver microsomes are vesicles of endoplasmic reticulum, rich in cytochrome P450 enzymes.

A short description of data set [4]: Liver microsome stability, mouse. In kind it is in vitro ADME. As to conditions: liver microsomes, read-out: Microsome Stability Mouse t1/2. As to the method:
as §1, §6, §7

The nature of data set [5]: Chemical stability in phosphate buffered saline (PBS). As to conditions: 50 μM prodrug. Format: physicochemical. On the procedure: (§8) Chemical stability of creatine prodrugs in phosphate buffered saline (PBS), simulated intestinal fluid (SIF) without pancreatin, simulated gastric fluid (SGF) without pepsin were determined by LC-UV, LC-CAD, LC-UV-CAD or LC-MS/MS as appropriate. Creatine prodrugs of the present disclosure (50 μM) were incubated at 37° C. according to described protocols and prodrug levels were compared between t=0, t=15, t=60, and t=120 mins by peak area ratio to determine the percentage remained at t=120 mins (2 h).
(§9) Protocol for PBS, SIF and SGF stability for screening:
(§10) Prodrugs (50 μM) were incubated in PBS, FaSSIF (Biorelevant) or FaSSGF (Biorelevant) at 37° C.

The nature of data set [6]: Chemical stability in simulated gastric fluid (SGF) without pepsin. Format: physicochemical. The conditions noted are these: 50 μM prodrug. On the procedure: as §8, §9, §10

Structures are written as SMILES.

With `[2H]C([2H])([2H])N(CC(=O)O)C(=N)NC(=O)CCCCCCC/C=C\CCCCCC` [Compound 28], the half-life in data set [1] and in data set [2] was above 3 h throughout. The half-life at 10 μM was determined as 1.5 h in data set [3] (pH 7.4, Table 2A) and 1.4 h in data set [4] (pH 7.4, Table 2A). Besides, in data set [5] (Table 2A), the “Chemical Stability PBS % T0 at 2 hours at 37 °C.” value (from here on “Chemical Stability PBS % T0”) is on record as 51%. Moreover, in data set [6] (Table 2A), the “Chemical Stability SGF, no enzyme % T0 at 2 hours at 37 °C.” value (“Chemical Stability SGF, no enzyme % T0” below) is 99%.
Take `[2H]C([2H])([2H])N(CC(=O)[O-])C(=N)NC(=O)CCCCCCCCCCCC.[Na+]` [Compound 29]: the half-life in data set [1] and in data set [2] was above 3 h in each case. The half-life at 10 μM in data set [3] (pH 7.4, Table 2A) is 0.983 h; in data set [4] (pH 7.4, Table 2A) it was 1.83 h. Also, the “Chemical Stability PBS % T0” value in data set [5] (Table 2A) was found to be 64%. The “Chemical Stability SGF, no enzyme % T0” value in data set [6] (Table 2A) is reported as 91%.
On to `[2H]C([2H])([2H])N(CC(=O)[O-])C(=N)NC(=O)CCCCCCCCCCC.[Na+]` [Compound 31], for which the half-life in data set [1] and in data set [2] was above 3 h throughout. Also, the half-life at 10 μM is 0.983 h in data set [3] (pH 7.4, Table 2A) and above 2.42 h in data set [4] (pH 7.4, Table 2A). Also, the “Chemical Stability PBS % T0” value in data set [5] (Table 2A) came out at 98%. Further, the “Chemical Stability SGF, no enzyme % T0” value in data set [6] (Table 2A) is given as 98%.
As to `[2H]C([2H])([2H])N(CC(=O)[O-])C(=N)NC(=O)CCCCCCCCCC.[K+]` [Compound 33], the half-life in data set [1] and in data set [2] was above 3 h each time. Further, the half-life at 10 μM in data set [3] (pH 7.4, Table 2A) came to 1.2 h; in data set [4] (pH 7.4, Table 2A), 1.77 h. The “Chemical Stability PBS % T0” value in data set [5] (Table 2A) is 85%. For the same compound, the “Chemical Stability SGF, no enzyme % T0” value in data set [6] (Table 2A) is on record as 79%.
Consider `[2H]C([2H])([2H])N(CC(=O)[O-])C(=N)NC(=O)CCCCCCCC.[Li+]` [Compound 35], for which the half-life in data set [1] and in data set [2] was above 3 h throughout. Also, the half-life at 10 μM was 1.08 h in data set [3] (pH 7.4, Table 2A) and above 2.42 h in data set [4] (pH 7.4, Table 2A). In addition, the “Chemical Stability PBS % T0” value in data set [5] (Table 2A) is 116%. Further, the “Chemical Stability SGF, no enzyme % T0” value in data set [6] (Table 2A) was 86%.
Consider `[2H]C([2H])([2H])N(CC(=O)[O-])C(=N)NC(=O)CCCCCCCC.[Na+]` [Compound 36], for which the half-life in data set [1] and in data set [2] was above 3 h throughout. For the same compound, the half-life at 10 μM in data set [3] (pH 7.4, Table 2A) was 1.7 h; in data set [4] (pH 7.4, Table 2A) it was above 2.42 h. Moreover, the “Chemical Stability PBS % T0” value in data set [5] (Table 2A) is 106%. In data set [6] (Table 2A), the “Chemical Stability SGF, no enzyme % T0” value was 99%.
On to `[2H]C([2H])([2H])N(CC(=O)[O-])C(=N)NC(=O)CCCCCCC.[Na+]` [Compound 38], for which the half-life in data set [1] and in data set [2] was above 3 h throughout. In addition, the half-life at 10 μM in data set [3] (pH 7.4, Table 2A) was above 2.42 h; in data set [4] (pH 7.4, Table 2A), above 2.42 h. Besides, the “Chemical Stability PBS % T0” value in data set [5] (Table 2A) is listed as 101%. Further, in data set [6] (Table 2A), the “Chemical Stability SGF, no enzyme % T0” value was 99%.
On to `Cl.[2H]C([2H])([2H])N(CC(=O)OC(C)(C)C)C(=N)NC(=O)CCCCCCCCCC` [Compound 44], for which the half-life came out at 1.67 h in data set [1] and 0.133 h in data set [2]. Besides, the half-life at 10 μM in data set [3] (pH 7.4, Table 2A) was 0.15 h; in data set [3] (pH 7.4, Table 2B), 0.15 h; in data set [4] (pH 7.4, Table 2A), below 0.0833 h; in data set [4] (pH 7.4, Table 2B), below 0.0833 h. Further, the “Chemical Stability PBS % T0” value in data set [5] (Table 2A) came to 42%; in data set [5] (Table 2B) it was 107%. Besides, the “Chemical Stability SGF, no enzyme % T0” value in data set [6] (Table 2A) is given as 86%; in data set [6] (Table 2B) it was 95%.
